This series can be described thus: in vitro. To be noted: human, hek293t cells.
On to `COc1ccc(N(C)C(=O)C(C)Cl)cc1Cl` (stereo not shown) [7-C14, 2-chloro-N-(3-chloro-4-methoxyphenyl)-N-methylpropanamide], for which the viability at 48 h, 25 µM worked out at 80.4%.

Take `CC(Cl)C(=O)N1CCCc2ccc(N(C)C)cc2C1` (stereo not shown) [7-C15, 2-chloro-1-[8-(dimethylamino)-2,3,4,5-tetrahydro-1H-2-benzazepin-2-yl]propan-1-one]: the viability at 48 h, 25 µM stood at 82.1%.

As to `CC(Cl)C(=O)N(C)C1CCN(c2ccccc2Cl)C1=O` (stereo not shown) [7-C16, 2-chloro-N-[1-(2-chlorophenyl)-2-oxopyrrolidin-3-yl]-N-methylpropanamide], the viability at 48 h, 25 µM is 77.8%.

Take `CC(Cl)C(=O)NC1CCN(c2ccccc2C(F)(F)F)C1` (stereo not shown) [7-C17, 2-chloro-N-{1-[2-(trifluoromethyl)phenyl]pyrrolidin-3-yl}propanamide]: the viability at 48 h, 25 µM amounted to 67.5%.

For `Cc1ncccc1OCC1CCCN1C(=O)C(C)Cl` (stereo not shown) [7-C18, 2-chloro-1-(2-{[(2-methylpyridin-3-yl)oxy]methyl}pyrrolidin-1-yl)propan-1-one], the viability at 48 h, 25 µM was 76.6%.

Turning to `CC(Cl)C(=O)NC(c1ccc(F)cc1)c1cnn(C)c1` (stereo not shown) [7-C19, 2-chloro-N-[(4-fluorophenyl)(1-methyl-1H-pyrazol-4-yl)methyl]propanamide], the viability at 48 h, 25 µM was determined as 93.1%.

Take `CCc1cnc(N2CCN(C(=O)C(C)Cl)CC2)s1` (stereo not shown) [7-C20, 2-chloro-1-[4-(5-ethyl-1,3-thiazol-2-yl)piperazin-1-yl]propan-1-one]: the viability at 48 h, 25 µM came out at 79.5%.

Turning to `CC(Cl)C(=O)NC1CCCN(c2ncccn2)C1` (stereo not shown) [7-C21, 2-chloro-N-[1-(pyrimidin-2-yl)piperidin-3-yl]propanamide], the viability at 48 h, 25 µM is 93.1%.

With `CC(Cl)C(=O)N1CCN(CC(F)(F)F)CC1C(C)C` (stereo not shown) [7-C22, 2-chloro-1-[2-(propan-2-yl)-4-(2,2,2-trifluoroethyl)piperazin-1-yl]propan-1-one], the viability at 48 h, 25 µM was found to be 91.5%.

For the compound `CCC(NC(=O)CCl)c1c(C)noc1C` (stereo not shown) [7-D03, 2-chloro-N-[1-(3,5-dimethyl-1,2-oxazol-4-yl)propyl]acetamide], the viability at 48 h, 25 µM is 104%.

Regarding `CN1C(=O)[C@H](NC(=O)CCl)COc2ccccc21` [7-D04, 2-chloro-N-[(3R)-5-methyl-4-oxo-2,3,4,5-tetrahydro-1,5-benzoxazepin-3-yl]acetamide], the viability at 48 h, 25 µM stood at 2.02%.

As for `O=C(CCl)NCc1cn[nH]c1C(F)F` [7-D05, 2-chloro-N-{[5-(difluoromethyl)-1H-pyrazol-4-yl]methyl}acetamide], the viability at 48 h, 25 µM stood at 0.404%.

As to `N#Cc1cccc2c1CC[C@H]2NC(=O)CCl` [7-D06, 2-chloro-N-[(1R)-4-cyano-2,3-dihydro-1H-inden-1-yl]acetamide], the viability at 48 h, 25 µM is 0.673%.

In the case of `CC(Cl)C(=O)NC1CCN(Cc2cscn2)CC1` (stereo not shown) [7-D07, 2-chloro-N-{1-[(1,3-thiazol-4-yl)methyl]piperidin-4-yl}propanamide], the viability at 48 h, 25 µM is 111%.

On to `CCC(NC(=O)CCl)c1cccc(OC)n1` (stereo not shown) [7-D08, 2-chloro-N-[1-(6-methoxypyridin-2-yl)propyl]acetamide], for which the viability at 48 h, 25 µM was found to be 1.69%.

Turning to `CC(Cl)C(=O)NCCc1nnc2n1CCCCC2` (stereo not shown) [7-D09, 2-chloro-N-(2-{5H,6H,7H,8H,9H-[1,2,4]triazolo[4,3-a]azepin-3-yl}ethyl)propanamide], the viability at 48 h, 25 µM was found to be 101%.

For the compound `COC1(OC)CCOCC1NC(=O)CCl` (stereo not shown) [7-D10, 2-chloro-N-(4,4-dimethoxyoxan-3-yl)acetamide], the viability at 48 h, 25 µM came out at 19.1%.

On to `Cc1nnc(C(C)NC(=O)C(C)Cl)s1` (stereo not shown) [7-D11, 2-chloro-N-[1-(5-methyl-1,3,4-thiadiazol-2-yl)ethyl]propanamide], for which the viability at 48 h, 25 µM was found to be 104%.

Regarding `O=C(CCl)N[C@H]1C[C@H](c2ccccc2)C1` [7-D12, 2-chloro-N-[(1r,3r)-3-phenylcyclobutyl]acetamide], the viability at 48 h, 25 µM worked out at 0.742%.

`CC(Cl)C(=O)N1CCN(c2oc(-c3ccco3)nc2C#N)CC1` (stereo not shown) [7-D13, 5-[4-(2-chloropropanoyl)piperazin-1-yl]-2-(furan-2-yl)-1,3-oxazole-4-carbonitrile]: the viability at 48 h, 25 µM was found to be 85%.

As to `CSc1ccccc1CC(C)NC(=O)CCl` (stereo not shown) [7-D14, 2-chloro-N-{1-[2-(methylsulfanyl)phenyl]propan-2-yl}acetamide], the viability at 48 h, 25 µM amounted to 1.59%.

Regarding `CC(Cl)C(=O)N1CCCCC1c1nc(-c2ncccn2)no1` (stereo not shown) [7-D15, 2-chloro-1-{2-[3-(pyrimidin-2-yl)-1,2,4-oxadiazol-5-yl]piperidin-1-yl}propan-1-one], the viability at 48 h, 25 µM was 85.8%.

For `O=C(CCl)NC(c1ccc(F)c(Cl)c1)C(F)(F)F` (stereo not shown) [7-D16, 2-chloro-N-[1-(3-chloro-4-fluorophenyl)-2,2,2-trifluoroethyl]acetamide], the viability at 48 h, 25 µM was 0.544%.

Consider `CC(Cl)C(=O)N1CCn2c(cc3c(Cl)cccc32)C1` (stereo not shown) [7-D17, 2-chloro-1-{9-chloro-1H,2H,3H,4H-pyrazino[1,2-a]indol-2-yl}propan-1-one], for which the viability at 48 h, 25 µM stood at 55.6%.

`O=C(CN(CC1CCCO1)C(=O)CCl)N1CCCC1` (stereo not shown) [7-D18, 2-chloro-N-[2-oxo-2-(pyrrolidin-1-yl)ethyl]-N-[(oxolan-2-yl)methyl]acetamide]: the viability at 48 h, 25 µM is 99.8%.

On to `Cc1cc(C2CCCN2C(=O)C(C)Cl)no1` (stereo not shown) [7-D19, 2-chloro-1-[2-(5-methyl-1,2-oxazol-3-yl)pyrrolidin-1-yl]propan-1-one], for which the viability at 48 h, 25 µM was determined as 88.5%.

On to `CC(NC(=O)CCl)C(c1ccccc1Cl)n1cccn1` (stereo not shown) [7-D20, 2-chloro-N-[1-(2-chlorophenyl)-1-(1H-pyrazol-1-yl)propan-2-yl]acetamide], for which the viability at 48 h, 25 µM is 1.01%.

With `CC(Cl)C(=O)NCc1ccc2cnn(C)c2c1` (stereo not shown) [7-D21, 2-chloro-N-[(1-methyl-1H-indazol-6-yl)methyl]propanamide], the viability at 48 h, 25 µM turned out to be 87.7%.

Take `O=C(CCl)NCc1ccc(Cl)c(C(F)(F)F)c1` [7-D22, 2-chloro-N-{[4-chloro-3-(trifluoromethyl)phenyl]methyl}acetamide]: the viability at 48 h, 25 µM was 0.676%.

For `CC(Cl)C(=O)NCCc1nnc(C(C)C)s1` (stereo not shown) [7-E03, 2-chloro-N-{2-[5-(propan-2-yl)-1,3,4-thiadiazol-2-yl]ethyl}propanamide], the viability at 48 h, 25 µM is 123%.

As for `COc1ccc2c(c1)OCCN(C(=O)C(C)Cl)C2` (stereo not shown) [7-E04, 2-chloro-1-(8-methoxy-2,3,4,5-tetrahydro-1,4-benzoxazepin-4-yl)propan-1-one], the viability at 48 h, 25 µM was found to be 122%.

As for `CC(Cl)C(=O)N(Cc1nc(C2CCCCCC2)no1)C1CC1` (stereo not shown) [7-E05, 2-chloro-N-[(3-cycloheptyl-1,2,4-oxadiazol-5-yl)methyl]-N-cyclopropylpropanamide], the viability at 48 h, 25 µM came out at 78.1%.

Consider `CC(Cl)C(=O)NC1CCc2ccccc2-n2ccnc21` (stereo not shown) [7-E06, 2-chloro-N-{2,5-diazatricyclo[8.4.0.0,2,6]tetradeca-1(14),3,5,10,12-pentaen-7-yl}propanamide], for which the viability at 48 h, 25 µM is 88.2%.

As for `CC(Cl)C(=O)N1CCN(C(=O)c2ccc3ccccc3c2)CC1` (stereo not shown) [7-E07, 2-chloro-1-[4-(naphthalene-2-carbonyl)piperazin-1-yl]propan-1-one], the viability at 48 h, 25 µM came to 96.2%.

What is called viability is a read-out of living cells in per cent, often relative to untreated cells.

Source of the values: article PMC11995724, “Antibiotic target discovery by integrated phenotypic and activity-based profiling of electrophilic fragments” (Cell chemical biology, 2025).
